Measurements published in the NIST ThermoML archive (doi:10.1016/j.fluid.2005.11.014).
Where “and” joins values, the source holds several entries; their conditions need not be identical. Equal values may be shown once. ± gives the expanded uncertainty stated by the source.

Conditions: 313.15 K; Liquid; Closed cell (Static) method

| SMILES | vapor or sublimation pressure |
| --- | --- |
| c1ccccc1 [benzene] | 24.39 ± 0.097 kPa and 24.37 ± 0.097 kPa |
| CC(C)OC(C)C [diisopropyl ether] | 37.1 ± 0.15 kPa and 37.11 ± 0.15 kPa and 37.12 ± 0.15 kPa |
| CCCO [propan-1-ol] | 7.003 ± 0.038 kPa and 7 ± 0.038 kPa |
